{"source": "patent US12465627B2", "about": "“Immunity-boosting agent, immuno-therapeutic anti-cancer agent, and anti-cancer therapy adverse effect mitigating agent containing anthocyanin-fucoidan complex as active ingredient” (JBKLAB CO., LTD., priority 2017, dated 2025)", "key": {"[1]": {"settings": "mouse, in vivo"}, "[2]": {"test_system": "CD8 T cells and NK cells in blood", "assay": "Immune cell activity and weight recovery in doxorubicin-treated mice", "assay_type": "in vivo, Balb/c mice", "settings": "DOX 10 mg/kg on day 1 and 5; oral administration for 14 days; flow cytometry"}, "[3]": {"test_system": "SK-BR-3 (human breast cancer) transplanted tumor", "assay": "Combined administration with doxorubicin in SK-BR-3 transplanted mice", "assay_type": "in vivo, Balb/c mice", "settings": "after second intravenous administration of doxorubicin"}}}
{"compound": "fucoidan", "values": [{"measurement": "BASO", "setting": "[1]", "value": 1.5, "unit": "%"}, {"measurement": "EOS", "setting": "[1]", "value": 6.1, "unit": "%"}, {"measurement": "HCT", "setting": "[1]", "value": 39.8, "unit": "%"}, {"measurement": "HGB", "setting": "[1]", "value": 10.9, "unit": "g/dL"}, {"measurement": "LYM", "setting": "[1]", "value": 14.3, "unit": "%"}, {"measurement": "MCHC", "setting": "[1]", "value": 12, "unit": "g/dL"}, {"measurement": "MONO", "setting": "[1]", "value": 4.6, "unit": "%"}, {"measurement": "NEUT", "setting": "[1]", "value": 67.9, "unit": "%"}, {"measurement": "PLT", "setting": "[1]", "value": "1242 ×10^3 cells/μL"}, {"measurement": "RBC", "setting": "[1]", "value": "9.14 ×10^6 cells/μL"}, {"measurement": "WBC", "setting": "[1]", "value": "18.41 ×10^3 cells/μL"}]}
{"compound": "COc1cccc2c1C(=O)c1c(O)c3c(c(O)c1C2=O)C[C@@](O)(C(=O)CO)C[C@@H]3O[C@H]1C[C@H](N)[C@H](O)[C@H](C)O1", "note": "[DOX, doxorubicin]", "values": [{"measurement": "immune cells (CD8 T cell and NK cell) in blood", "setting": "[2]", "value": "immune cells decreased"}, {"measurement": "BASO", "setting": "[1]", "value": 3.2, "unit": "%"}, {"measurement": "EOS", "setting": "[1]", "value": 3, "unit": "%"}, {"measurement": "HCT", "setting": "[1]", "value": 52.6, "unit": "%"}, {"measurement": "HGB", "setting": "[1]", "value": 16.5, "unit": "g/dL"}, {"measurement": "LYM", "setting": "[1]", "value": 53.7, "unit": "%"}, {"measurement": "MCHC", "setting": "[1]", "value": 15, "unit": "g/dL"}, {"measurement": "MONO", "setting": "[1]", "value": 4.3, "unit": "%"}, {"measurement": "NEUT", "setting": "[1]", "value": 33.9, "unit": "%"}, {"measurement": "PLT", "setting": "[1]", "value": "1954 ×10^3 cells/μL"}, {"measurement": "RBC", "setting": "[1]", "value": "10.99 ×10^6 cells/μL"}, {"measurement": "WBC", "setting": "[1]", "value": "6.57 ×10^3 cells/μL"}, {"measurement": "body weight change", "setting": "[3]", "value": "rapid decrease in body weight"}]}
